According to patent US7300664B1, “Vaginally administrable progesterone-containing tablets and method for preparing same” (Ferring B.V., priority 1998, dated 2007):
Where two headings read alike, the source gives them in different places.

Columns and labels:
[1] = Clinical use: twice-daily vaginal tablets, blood samples on days 14 and 30 (Example 4); type: in vivo, women; conditions: female, human, serum, other: vaginal, fasting morning sample, read-out: Blood Progesterone levels
Procedure: The pharmacokinetics and clinical use of tablets prepared in accordance with the invention were evaluated as follows: 50 healthy, post-menopausal women with intact uteri, 39 of whom had suffered premature menopause and 11 who were truly postmenopausal, all of whom were undergoing hormone replacement therapy (HRT), submitted blood samples for determination of baseline profiles of hormones (progesterone and other hormones) and other biochemicals (bilirubin, cholesterol, etc.). The blood samples were taken at 8 AM on the first day of the evaluation (day 0) in a fasting state, by intravenous indwelling catheter which was introduced into the cubital vein. Non-estrogen primed postmenopausal women were chosen in order to avoid confusion with endogenous progesterone secretion and estrogen influence on vaginal mucosa absorption (Villanueva et al., Fertil. Steril. 35 (1981), 433-437). To evaluate clinical use of the drug, the women were instructed to insert tablets prepared in accordance with the present invention, containing the same dose as administered on day 0, twice daily starting on day 1, and to […] for 20 minutes after each insertion. On days 14 and 30, blood samples for comparison with the baseline were drawn in the morning while the subjects were in a fasting state. Of the 50 women who participated in the evaluation, 20 were allocated tablets containing 50 mg progesterone, and the remainder of the participants received tablets containing 100 mg progesterone.

[2] = Single-dose pharmacokinetics of progesterone vaginal tablets in post-menopausal women (Example 4, day 0); type: in vivo; conditions: single vaginal tablet, mean; for Tmax / half-life: female, human, serum; for half-life: read-out: T1/2 (mean elimination half-life) (converted); for Cmax: read-out: Cmax (maximal serum concentration)
Procedure: The pharmacokinetics and clinical use of tablets prepared in accordance with the invention were evaluated as follows: 50 healthy, post-menopausal women with intact uteri, 39 of whom had suffered premature menopause and 11 who were truly postmenopausal, all of whom were undergoing hormone replacement therapy (HRT), submitted blood samples for determination of baseline profiles of hormones (progesterone and other hormones) and other biochemicals (bilirubin, cholesterol, etc.). The blood samples were taken at 8 AM on the first day of the evaluation (day 0) in a fasting state, by intravenous indwelling catheter which was introduced into the cubital vein. Non-estrogen primed postmenopausal women were chosen in order to avoid confusion with endogenous progesterone secretion and estrogen influence on vaginal mucosa absorption (Villanueva et al., Fertil. Steril. 35 (1981), 433-437). The women then self-administered the progesterone vaginal tablet using a plastic applicator and lay down for 20 minutes. Repeat blood samples for progesterone concentration were withdrawn 0.5, 1, 2, 4, 6, 8, 10, 12 and 24 hours after the vaginal insertion. Blood was allowed to clot at room temperature for 1 hour, after which the serum was separated by centrifugation and stored at −20° C. until analysis. Of the 50 women who participated in the evaluation, 20 were allocated tablets containing 50 mg progesterone, and the remainder of the participants received tablets containing 100 mg progesterone. […] The mean […] (Tmax), mean elimination half-life (T1/2), maximal serum concentration (Cmax), and AUC (area under the curve, i.e. total amount of plasma progesterone observed) derived from the blood samples taken on day 0 of the evaluation are summarized in Table II.

[3] = 50 mg progesterone, 20 subjects
[4] = 100 mg progesterone, 30 subjects

CC(=O)[C@H]1CC[C@H]2[C@@H]3CCC4=CC(=O)CC[C@]4(C)[C@H]3CC[C@]12C [Progesterone, progesterone]
concentration at 14 day ([1]; 50 mg twice daily, Day 14, 50 mg tablet twice daily, 20 subjects): 17.5 nM | concentration at 30 day ([1]; 50 mg twice daily, Day 30, 50 mg tablet twice daily, 20 subjects): 17.4 nM | concentration at 14 day ([1]; 100 mg twice daily, Day 14, 100 mg tablet twice daily, 30 subjects): 26.1 nM | concentration at 30 day ([1]; 100 mg twice daily, Day 30, 100 mg tablet twice daily, 30 subjects): 21.4 nM | Tmax [2, 3]: 6.1 h | half-life [2, 3]: 13.2 h | Tmax [2, 4]: 6.4 h | half-life [2, 4]: 13.7 h | AUC (area under the curve) [2, 3]: 154.15 nmol/h/L | Cmax [2, 3]: 20.4 nM | Cmax ([2]; 100 mg progesterone, 30 subjects, P = 0.0004): 31.6 nM | AUC (area under the curve) ([2]; 100 mg progesterone, 30 subjects, P = 0.001): 247.61 nmol/h/L
